Like-named read-outs stand apart in the source and are kept apart here.
Assays:
HIV-1 (strain IIIB) = test: microbe, parasite or virus in culture; assay type: cell-based; details: Human immunodeficiency virus 1, IIIB
HIV-1 protease = HIV-1 protease (Human immunodeficiency virus type 1 group M subtype B, UniProt P04585); test: biochemical
[1] = MT4, Table 12, anti-viral potency in MT-4 cells, read-out: IC50
[2] = Table 12, HIV-1 protease, read-out: Ki
[3] = MT4, antiviral assay, MT4 cells infected with HIV-1 (strain IIIB), class symbol, read-out: IC50 (activity range)

Row | SMILES | IC50 (HIV-1 (strain IIIB); [1]) | Ki (HIV-1 protease; [2]) | Ki (HIV-1 protease) | IC50 (HIV-1 (strain IIIB); [3])
1 | CNc1cccc(S(=O)(=O)N(C[C@@H](O)[C@H](Cc2ccccc2)NC(=O)O[C@H]2CO[C@H]3OCC[C@H]32)CC(C)(C)CCCCNC(=O)N(C)C)c1 [Compound 247, (3R,3aS,6aR)hexahydrofuro[2,3-b]furan-3-yl N-[(1S,2R)-1-benzyl-3-((6-[(dimethylamino)carbonyl]amino-2,2-dimethylhexyl)[3-(methylamino)phenyl]sulfonylamino)-2-hydroxypropyl]carbamate] | ≤ 100 nM | < 1 nM | – | –
2 | COc1ccc(S(=O)(=O)N(C[C@@H](O)[C@H](Cc2ccccc2)NC(=O)OC2COCOC2)CC(C)(C)CCC(N)=O)cc1 [Compound 273, {(1S,2R)-1-Benzyl-3-[(4-carboxamide-2,2-dimethyl-butyl)-(4-methoxy-benzenesulfonyl)-amino]-2-hydroxy-propyl}-carbamic acid [1,3]dioxan-5-yl ester] | 100 to 500 nM | < 1 nM | – | –
3 | COC(=O)NCCCCC(C)(C)CN(C[C@@H](O)[C@H](Cc1ccccc1)NC(=O)O[C@H]1CO[C@H]2OCC[C@H]21)S(=O)(=O)c1ccc2c(c1)OCCO2 [Compound 250, (3R,3aS,6aR)hexahydrofuro[2,3-b]furan-3-yl N-[(1S,2R)-1-benzyl-3-((2,3-dihydro-1,4-benzodioxin-6-ylsulfonyl)6-[(methoxycarbonyl)amino]-2,2-dimethylhexylamino)-2-hydroxypropyl]carbamate] | ≤ 100 nM | < 1 nM | – | –
4 | CC(=O)Nc1ccc(S(=O)(=O)N(C[C@@H](O)[C@H](Cc2ccccc2)NC(=O)O[C@H]2CO[C@H]3OCC[C@H]32)CC(C)(C)CCC#N)cc1 [Compound 29, {(1S,2R)-3-[(4-Acetylamino-benzenesulfonyl)-(4-cyano-2,2-dimethyl-butyl)-amino]-1-benzyl-2-hydroxy-propyl}-carbamic acid (3R,3aS,6aR)hexahydro-furo[2,3-b]furan-3-yl ester] | 100 to 500 nM | < 1 nM | – | –
5 | COc1ccc(S(=O)(=O)N(CC(O)C(Cc2ccccc2)NC(=O)OC2COC3OCCC23)CC(C)(C)CCC#N)cc1 [Compound 11, (3S,3aR,6aS)-Hexahydrofuro[2,3-b]furan-3-yl N-((1S,2R)-1-benzyl-3-(4-cyano-2,2-dimethylbutyl)[(4-methoxyphenyl)sulfonyl]amino-2-hydroxypropyl)carbamate] | ≤ 100 nM | < 1 nM | – | –
6 | CNC(=O)CNC(=O)NCCC(C)(C)CN(CC(O)C(Cc1ccccc1)NC(=O)OC1COC2OCCC12)S(=O)(=O)c1ccc(OC)cc1 [Compound 228, (3R,3aS,6aR)hexahydrofuro[2,3-b]furan-3-yl N-(1S,2R)-1-benzyl-2-hydroxy-4-[(4-methoxyphenyl)sulfonyl]-6,6-dimethyl-10,13-dioxo-4,9,11,14-tetraazapentadec-1-ylcarbamate and (3S,3aR,6aS)hexahydrofuro[2,3-b]furan-3-yl N-(1S,2R)-1-benzyl-2-hydroxy-4-[(4-methoxyphenyl)sulfonyl]-6,6-dimethyl-10,13-dioxo-4,9,11,14-tetraazapentadec-1-ylcarbamate] | 100 to 500 nM | < 1 nM | – | –
7 | CCOC(=O)NCCC(C)(C)CN(CC(O)C(Cc1ccccc1)NC(=O)OC1COC2OCCC12)S(=O)(=O)c1ccc(OC)cc1 [Compound 226, (3R,3aS,6aR)hexahydrofuro[2,3-b]furan-3-yl N-((1S,2R)-1-benzyl-3-4-[(ethoxycarbonyl)amino]-2,2-dimethylbutyl[(4-methoxyphenyl)sulfonyl]amino-2-hydroxypropyl)carbamate and (3S,3aR,6aS)hexahydrofuro[2,3-b]furan-3-yl N-((1S,2R)-1-benzyl-3-4-[(ethoxycarbonyl)amino)-2,2-dimethylbutyl[(4-methoxyphenyl)sulfonyl]amino-2-hydroxypropyl)carbamate] | ≤ 100 nM | < 1 nM | – | –
8 | COc1ccc(S(=O)(=O)N(CC(O)[C@H](Cc2ccccc2)NC(=O)OC2COC3OCCC23)CC(C)(C)CCCC(C)=O)cc1 (stereo partly shown) [Compound 259] | ≤ 100 nM | < 1 nM | – | –
9 | COc1ccc(S(=O)(=O)N(CC(O)C(Cc2ccccc2)NC(=O)OC2COC3OCCC23)CC(C)(C)CCNC(=O)OC(C)C)cc1 [Compound 242, (3R,3aS,6aR)hexahydrofuro[2,3-b]furan-3-yl N-((1S,2R)-1-benzyl-2-hydroxy-3-4-[(isopropoxycarbonyl)amino]-2,2-dimethylbutyl[(4-methoxyphenyl)sulfonyl]aminopropyl)carbamate and (3S,3aR,6aS)hexahydrofuro[2,3-b]furan-3-yl N-((1S,2R)-1-benzyl-2-hydroxy-3-4-[(isopropoxycarbonyl)amino]-2,2-dimethylbutyl[(4-methoxyphenyl)sulfonyl]aminopropyl)carbamate] | ≤ 100 nM | – | < 1 nM | –
10 | CC(=O)CCC(C)(C)CN(CC(O)[C@H](Cc1ccccc1)NC(=O)OC1COC2OCCC12)S(=O)(=O)c1ccc2c(c1)OCO2 (stereo partly drawn) [Compound 240, (3R,3aS,6aR)-Hexahydrofuro[2,3-b]furan-3-yl N-((1S,2R)-1-benzyl-3-(2,2-dimethyl-5-oxohexyl)[(3,4-methylenedioxyphenyl)sulfonyl]amino-2-hydroxypropyl)carbamate] | ≤ 100 nM | < 1 nM | – | –
11 | CNc1cccc(S(=O)(=O)N(C[C@@H](O)[C@H](Cc2ccccc2)NC(=O)O[C@H]2CO[C@H]3OCC[C@H]32)CC(C)(C)CCCNC(=O)OC)c1 [Compound 264, (3R,3aS,6aR)hexahydrofuro[2,3-b]furan-3-yl N-[(1S,2R)-1-benzyl-2-hydroxy-3-(5-[(methoxycarbonyl)amino]-2,2-dimethylpentyl[3-(methylamino)phenyl]sulfonylamino)propyl]carbamate] | ≤ 100 nM | < 1 nM | – | –
12 | CNC(=O)NCC(=O)NCCC(C)(C)CN(CC(O)C(Cc1ccccc1)NC(=O)OC1COC2OCCC12)S(=O)(=O)c1ccc2c(c1)OCO2 (stereo not shown) [Compound 529] | – | – | < 1 nM | –
13 | CC(C)(CCC#N)CN(C[C@@H](O)[C@H](Cc1ccccc1)NC(=O)OC(C)(C)C)S(=O)(=O)c1cccc(N)c1 [Compound 5, tert-ButylN-((1S,2R)-3-[(3-aminophenyl)sulfonyl](4-cyano-2,2-dimethylbutyl)amino-1-benzyl-2-hydroxypropyl)carbamate] | > 1000 nM | < 1 nM | – | –
14 | CNc1cccc(S(=O)(=O)N(C[C@@H](O)[C@H](Cc2ccccc2)NC(=O)O[C@H]2CO[C@H]3OCC[C@H]32)CC(C)(C)CCCNC(=O)N(C)C)c1 [Compound 267, (3R,3aS,6aR)hexahydrofuro[2,3-b]furan-3-yl N-[(1S,2R)-1-benzyl-3-((5-[(dimethylamino)carbonyl]amino-2,2-dimethylpentyl)[3-(methylamino)phenyl]sulfonylamino)-2-hydroxypropyl]carbamate] | ≤ 100 nM | < 1 nM | – | –
15 | CCNc1cccc(S(=O)(=O)N(CC(O)C(Cc2ccccc2)NC(=O)OC2COC3OCCC23)CC(C)(C)CCC#N)c1 [Compound 44, {(1S,2R)-3-[(3-N-ethylaminophenyl)sulfonyl]-(4-cyano-2,2-dimethyl-butyl)-amino]-1-benzyl-2-hydroxy-propyl}carbamic acid (3R,3aS,6aR)hexahydro-furo[2,3-b]furan-3-yl ester] | – | < 1 nM | – | –
16 | CNC(=O)NCC(=O)NCCCCC(C)(C)CN(CC(O)C(Cc1ccccc1)NC(=O)OC1COC2OCCC12)S(=O)(=O)c1ccc2c(c1)OCO2 (stereo not shown) [Compound 543] | – | – | < 1 nM | –
17 | COc1ccc(S(=O)(=O)N(CCC(C)CCC=O)C[C@@H](O)[C@H](Cc2ccccc2)NC(=O)OC(C)(C)C)cc1 (stereo partly shown) [Compound 277] | – | 1 to 10 nM | – | –
18 | COc1ccc(S(=O)(=O)N(CCC(C)=O)C[C@@H](O)[C@H](Cc2ccccc2)NC(=O)OC(C)(C)C)cc1 [Compound 279] | – | 10 to 100 nM | – | –
19 | CC(CCC=O)CCN(C[C@@H](O)[C@H](Cc1ccccc1)NC(=O)OC(C)(C)C)S(=O)(=O)c1ccc2c(c1)OCO2 (stereo partly shown) [Compound 278] | – | 1 to 10 nM | – | –
20 | CC(C)(CCC#N)CN(C[C@@H](O)[C@H](Cc1ccccc1)NC(=O)OC(C)(C)C)S(=O)(=O)c1ccc2c(c1)OCO2 [Compound 6, {(1S,2R)-3-[(Benzo[1,3]dioxole-5-sulfonyl)-(4-cyano-2,2-dimethyl-butyl)-amino]-1-benzyl-2-hydroxy-propyl}-carbamic acid tert-butyl ester] | – | < 1 nM | – | –
21 | CN(C)C(=O)NCC(=O)NCCC(C)(C)CN(CC(O)C(Cc1ccccc1)NC(=O)OC1COC2OCCC12)S(=O)(=O)c1ccc2c(c1)OCO2 (stereo not shown) [Compound 526] | – | – | – | 100 to 500 nM
22 | COCC(=O)NCC(=O)NCCC(C)(C)CN(CC(O)C(Cc1ccccc1)NC(=O)OC1COC2OCCC12)S(=O)(=O)c1ccc2c(c1)OCO2 (stereo not shown) [Compound 527] | – | – | – | 100 to 500 nM
23 | CC(C)(C)OC(=O)N[C@@H](Cc1ccccc1)[C@H](O)CN(CCC#N)S(=O)(=O)c1cccc(N)c1 [Compound 127] | – | 10 to 100 nM | – | –
24 | CC(C)(CCNC(=O)CN)CN(CC(O)C(Cc1ccccc1)NC(=O)OC1COC2OCCC12)S(=O)(=O)c1ccc2c(c1)OCO2 [Compound 520, (3R,3aS,6aR)hexahydrofuro[2,3-b]furan-3-yl N-(1S,2R)-3-[(4-[(amino)acetylamino]-2,2-dimethylbutyl)(1,3-benzodioxol-5-ylsulfonyl)amino]-1-benzyl-2-hydroxypropylcarbamate] | – | – | – | 100 to 500 nM
25 | COc1ccc(S(=O)(=O)N(CCC#N)C[C@@H](O)[C@H](Cc2ccccc2)NC(=O)OC(C)(C)C)cc1 [Compound 123] | – | 10 to 100 nM | – | –
26 | COc1ccc(S(=O)(=O)N(CC(O)[C@H](Cc2ccccc2)NC(=O)OC(C)(C)C)CC(C)(C)CCOC(N)=O)cc1 (stereo partly drawn) [Compound 234, ter-Butyl N-((1S,2R)-1-benzyl-3-(4-carbamoyloxy-2,2-dimethylbutyl)[(4-methoxyphenyl)sulfonyl]amino-2-hydroxypropyl)carbamate] | – | < 1 nM | – | –
27 | CNC(=O)NCC(=O)NCCCC(C)(C)CN(CC(O)C(Cc1ccccc1)NC(=O)OC1COC2OCCC12)S(=O)(=O)c1ccc2c(c1)OCO2 (stereo not shown) [Compound 536] | – | – | < 1 nM | –
